Measurements published in US11254668B2, “Pyrazolo[1,5-A]pyrazin-4-yl and related derivatives” (Pfizer Inc., priority 2017, dated 2022).
Where two headings read alike, the source gives them in different places.

What was measured:
Type in all cases: biochemical
JAK1 = JAK1 (Homo sapiens (Human), UniProt P23458); test: JAK Caliper Enzyme Assay at 1 mM ATP, JAK1
Procedure, shortened: (§1)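 IC50 (nM) derived from percent conversion of fluorescently labelled peptide, measured by Caliper LabChip mobility-shift separation after EDTA stop. Each JAK family kinase domain (human, recombinant) run at 1 mM ATP and room temperature, conditions set to 20-30% product; DMSO wells define uninhibited baseline.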

JAK3 = JAK3 (Homo sapiens (Human), UniProt P52333); test: JAK Caliper Enzyme Assay at 1 mM ATP, JAK3
JAK3, sequence (P52333 822-1111): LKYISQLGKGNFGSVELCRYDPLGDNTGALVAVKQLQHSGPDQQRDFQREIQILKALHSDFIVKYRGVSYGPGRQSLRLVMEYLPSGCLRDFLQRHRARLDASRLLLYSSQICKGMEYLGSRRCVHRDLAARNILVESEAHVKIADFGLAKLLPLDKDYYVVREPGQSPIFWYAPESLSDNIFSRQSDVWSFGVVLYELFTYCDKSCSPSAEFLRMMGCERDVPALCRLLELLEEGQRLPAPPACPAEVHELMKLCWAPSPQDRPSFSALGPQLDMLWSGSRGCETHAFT
Procedure, shortened: as §1

JAK2 = JAK2 (Homo sapiens (Human), UniProt O60674); test: JAK Caliper Enzyme Assay at 1 mM ATP, JAK2
JAK2, sequence (O60674 849-1124): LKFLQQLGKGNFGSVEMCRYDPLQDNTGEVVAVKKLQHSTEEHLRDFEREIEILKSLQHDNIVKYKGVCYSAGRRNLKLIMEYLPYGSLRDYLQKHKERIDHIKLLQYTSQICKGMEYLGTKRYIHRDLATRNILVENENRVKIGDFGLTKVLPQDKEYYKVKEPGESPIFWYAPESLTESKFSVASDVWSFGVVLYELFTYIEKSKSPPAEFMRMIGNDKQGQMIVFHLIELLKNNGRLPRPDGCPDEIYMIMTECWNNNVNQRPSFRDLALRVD
Procedure, shortened: (§2)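 Recombinant human kinase domains phosphorylate a fluorescent synthetic peptide at 1 mM ATP and room temperature, with enzyme level and time tuned to 20–30% conversion before an EDTA stop. Microfluidic mobility-shift separation gives percent product from peak heights. Percent effect against plate controls (DMSO baseline) is plotted versus compound concentration.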

TYK2 = TYK2 (Homo sapiens (Human), UniProt P29597); test: JAK Caliper Enzyme Assay at 1 mM ATP, TYK2
TYK2, sequence (P29597 897-1176): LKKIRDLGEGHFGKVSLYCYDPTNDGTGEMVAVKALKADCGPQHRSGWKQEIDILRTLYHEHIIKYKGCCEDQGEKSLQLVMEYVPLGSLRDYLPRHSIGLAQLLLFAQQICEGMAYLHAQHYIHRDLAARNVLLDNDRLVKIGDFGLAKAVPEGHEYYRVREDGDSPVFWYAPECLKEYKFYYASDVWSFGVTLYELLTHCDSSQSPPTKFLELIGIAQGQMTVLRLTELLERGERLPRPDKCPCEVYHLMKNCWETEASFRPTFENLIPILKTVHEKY
Procedure, shortened: as §2

JAK1, sequence (P23458 875-1153): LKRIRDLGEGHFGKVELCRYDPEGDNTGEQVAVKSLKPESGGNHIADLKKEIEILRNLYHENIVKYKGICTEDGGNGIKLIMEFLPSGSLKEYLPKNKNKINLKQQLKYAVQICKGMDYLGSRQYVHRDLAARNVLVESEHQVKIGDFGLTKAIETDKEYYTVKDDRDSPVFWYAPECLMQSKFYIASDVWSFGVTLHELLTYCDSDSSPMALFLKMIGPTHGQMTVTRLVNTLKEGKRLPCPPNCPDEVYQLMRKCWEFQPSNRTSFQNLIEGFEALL

IC50 (JAK1) [nM]	IC50 (JAK3) [nM]	IC50 (JAK2) [nM]	IC50 (TYK2) [nM]	IC50 (JAK1; JAK Caliper enzyme assay) [nM]	IC50 (JAK3; JAK Caliper enzyme assay) [nM]	IC50 (JAK2; JAK Caliper enzyme assay) [nM]	IC50 (TYK2; JAK Caliper enzyme assay) [nM]	Structure (SMILES)
1970	> 10000	666	33					N#CCC1(n2ccc(-c3nc(-c4cnc5cc[nH]c5c4)cc4ncccc34)n2)CN(CC(F)(F)F)C1 [Example 158, [3-{3-[7-(1H-pyrrolo[3,2-b]pyridin-6-yl)-1,6-naphthyridin-5-yl]-1H-pyrazol-1-yl}-1-(2,2,2-trifluoroethyl)azetidin-3-yl]acetonitrile]
3720	> 10000	1120	96					N#CC[C@]1(n2ccc(-c3nc(-c4cnnc(N)c4)cc4ncccc34)n2)C[C@H](C#N)C1 [Example 239, trans-3-{3-[7-(6-aminopyridazin-4-yl)-1,6-naphthyridin-5-yl]-1H-pyrazol-1-yl}-3-(cyanomethyl)cyclobutanecarbonitrile]
6570	> 10000	4720	235					Cn1cnc2cc(-c3cc4ncccc4c(-c4ccn(C5(CC#N)CN(S(C)(=O)=O)C5)n4)n3)cnc21 [Example 164, [3-{3-[7-(3-methyl-3H-imidazo[4,5-b]pyridin-6-yl)-1,6-naphthyridin-5-yl]-1H-pyrazol-1-yl}-1-(methylsulfonyl)azetidin-3-yl]acetonitrile]
2950	> 10000	900	198					N#CC[C@]1(n2ccc(-c3nc(-c4cccc(CO)n4)cc4ncccc34)n2)C[C@@H](C#N)C1 [Example 212, cis-3-(cyanomethyl)-3-(3-{7-[6-(hydroxymethyl)pyridin-2-yl]-1,6-naphthyridin-5-yl}-1H-pyrazol-1-yl)cyclobutanecarbonitrile]
86	> 10000	127	50					N#CC[C@H]1C[C@](CC#N)(n2cc(-c3nc(-c4cn[nH]c4)cc4ncccc34)cn2)C1 [Example 2, 2,2′-(trans-1-{4-[7-(1H-pyrazol-4-yl)-1,6-naphthyridin-5-yl]-1H-pyrazol-1-yl}cyclobutane-1,3-diyl)diacetonitrile]
951	> 10000	841	68					N#CCC1(n2ccc(-c3nc(-c4ccc(N)nc4)cc4ncccc34)n2)CN(CC(F)(F)F)C1 [Example 192]
311	1590	50	16					Cn1cc(-c2cc3ncccc3c(-c3ccn(C4(CC#N)CN(S(N)(=O)=O)C4)n3)n2)cn1 [Example 108, 3-(cyanomethyl)-3-{3-[7-(1-methyl-1H-pyrazol-4-yl)-1,6-naphthyridin-5-yl]-1H-pyrazol-1-yl}azetidine-1-sulfonamide]
382	3190	21	8					Cn1cc(-c2cc3ncccc3c(-c3ccn(C4(CC#N)CN(S(C)(=O)=O)C4)n3)n2)c(N)n1 [Example 138, [3-{3-[7-(3-amino-1-methyl-1H-pyrazol-4-yl)-1,6-naphthyridin-5-yl]-1H-pyrazol-1-yl}-1-(methylsulfonyl)azetidin-3-yl]acetonitrile]
619	9120	70	22					CS(=O)(=O)N1CC(CC#N)(n2ccc(-c3nc(-c4cnn(CC5COC5)c4)cc4ncccc34)n2)C1 [Example 132, [1-(methylsulfonyl)-3-(3-{7-[1-(oxetan-3-ylmethyl)-1H-pyrazol-4-yl]-1,6-naphthyridin-5-yl}-1H-pyrazol-1-yl)azetidin-3-yl]acetonitrile]
				> 10000	> 10000	2630	261	Cn1cc(-c2cn3ncnc3c(-c3cnn(C4(CC#N)CN(CC#N)C4)c3)n2)cn1 [Example 477, 2,2′-(3-{4-[6-(1-methyl-1H-pyrazol-4-yl)[1,2,4]triazolo[1,5-a]pyrazin-8-yl]-1H-pyrazol-1-yl}azetidine-1,3-diyl)diacetonitrile]
